Experimental findings from patent US20260130918A1, “TRANSCRIPTION FACTOR PFAP2-O5 INHIBITOR FOR PLASMODIUM FALCIPARUM, PHARMACEUTICAL COMPOSITION, AND DRUG FOR TREATING MALARIA RESISTANT TO ARTEMISININ AND ANALOG THEREOF” (priority 2023, published 2026) are described below.

Entries after “also recorded” stand apart in the source; their conditions may differ.

In data set [1] the test system is PfAP2-O5 target genes (invasion genes). Briefly: RNA-seq analysis of invasion gene expression after inhibitor treatment. The data set is classed as cell-based, Plasmodium falciparum. To be noted: wild-type strain treated with 1 M triazoloquinoline derivative for one life cycle. On the procedure: Wild-type and pfap2-o5 conditional knockdown Plasmodium falciparum strains were treated with the triazoloquinoline derivative represented by formula (I), respectively. After strict synchronization of the Plasmodium falciparum strains, […] triazoloquinoline derivative was added one life cycle in advance. After one life cycle, the ring (10-15 hours), trophozoite (28-32 hours), and schizont (40-44 hours) stage cultures of the wild-type and pfap2-o5 conditional knockdown Plasmodium falciparum strains treated with the triazoloquinoline derivative were collected. Total RNA was purified using the Direct-zol RNA kit, strand-specific RNA sequencing libraries were then prepared using KAPA mRNA beads, and the RNA was fragmented. The libraries were sequenced on the Illumina HiSeq X Ten system, and the differential gene expression between the two Plasmodium falciparum strains after inhibitor treatment was analyzed.

The test system of the next data set is 293T cells. The data set is described as follows: 3-day CCK-8 cytotoxicity assay, 293T. The data set is classed as cell-based, human. Particulars: 72 hours. On the procedure:
(§1) Mammalian 293T and HepG2 cells were cultured and passaged, trypsinized, and resuspended in DMEM. The cells were counted using a hemocytometer and diluted to 10^5 cells/mL. The cell suspension was evenly added to a 96-well plate, with 100 μL per well. After the cells were subjected to attachment culture in a 37° C. incubator (5% CO2) for 24 hours, the inhibitors of the corresponding concentrations were added. Gradient dilution (11 concentration gradients) was performed at a 1/2 ratio according to the doubling gradient dilution. Complete culture medium was used as a negative control, and DMEM was used as a background control. After the culture in a 37° C. incubator (5% CO2) for 72 hours, 10 µL of CCK8 reagent was added to each well. The plate was incubated in a 37° C. incubator (5% CO2) for 1 hour. The absorbance at a 450 nm wavelength was read by a microplate reader, and a survival rate was calculated based on the absorbance.
(§2) [formula] • where Abtreated, Abbackground, and Abcontrol represent the absorbance values of the small molecule drug group, the DMEM control group, and the untreated control group, respectively. The inhibition rate of the drug was calculated based on the survival rate at different concentrations, and the growth inhibition curve was summarized as inhibition rate-drug concentration. The IC50 was calculated using SPSS 18.0 software.

The next data set deals with HepG2 cells. Briefly: 3-day CCK-8 cytotoxicity assay, HepG2. The data set is classed as cell-based, human. Particulars: HepG2, 72 hours. On the procedure: as §1, §2
On the technique in general: Formazan colour is commonly taken as a measure of viable cells.

Data set [2] concerns artemisinin-resistant Plasmodium falciparum strains. Briefly: Ring-stage survival assay against resistant Plasmodium falciparum strains. The data set is classed as cell-based. To be noted: in combination with DHA, 6 hours exposure, then 66 hours culture. On the procedure:
This experiment aimed to evaluate the killing effect of the triazoloquinoline derivative as a combination drug against drug-resistant Plasmodium falciparum strains using the gold-standard drug resistance assay. The detailed implementation procedures were as follows: • 1. Culture of Plasmodium falciparum when the parasitemia was greater than 4% and most parasites were at the ring (R) stage, the culture was synchronized with Sorbitol for 10 minutes and vortexed for 5 seconds; • 2. Synchronization with sorbitol was repeated 30-48 hours later (depending on the parasite stage); • 3. Smear test under microscope after approximately 30 hours of culture: if the proportion of the mature schizont (S) stage (10-12 merozoites) was greater than 0.5%, the operation proceeded to procedure 4; if the proportion of the mature S stage (10-12 merozoites) was less than 0.5%, procedure 2 was repeated; • 4. […] After the culture was mixed well, approximately 200 μL of the culture was pipetted and centrifuged for smear test under microscope (this could be done approximately 10 minutes in advance); the parasitemia was quickly calculated (must be greater than 0.5%); • 7. […] After 66 hours of the culture, smear test under microscope was performed to calculate the parasitemia, and the survival rate was calculated.

A short description of data set [3]: Liver microsomal metabolism, rat. The data set is classed as in vitro ADME. On the set-up: half-life / CLint scaled: dose or concentration left out as unconfirmed. On the procedure: (§3) In the microsomal metabolism assay, the inhibitor was incubated with liver microsomes from different species; the reaction was terminated at different time points; the remaining amount of the inhibitor in the samples at each time point was determined using LC-MS/MS. The percentage of parent drug remaining was calculated, and the hepatic intrinsic clearance CLinit(liver) was finally obtained. Testosterone was used as a control in this study to verify the reliability of the experimental system. The detailed procedures were as follows:
(§4) The incubation system consisted of 0.1 M Tris-HCl buffer (pH 7.4), 1 mM MgCl2, 1 mM NADPH (Nicotinamide Adenine Dinucleotide Phosphate), and 0.5 mg/mL microsomes, and the final reaction volume was 200 μL. […] inhibitor and testosterone were pre-incubated with liver microsomes from different species in a 37° C. water bath for 5 minutes. 100 μL of NADPH was added to initiate the reaction. 400 μL of stop solution was added to terminate the reaction at time points of 0 minutes, 5 minutes, 15 minutes, 30 minutes, 45 minutes, and 60 minutes. 40 μL of internal standard was added, and the mixture was vortexed for 5 minutes and centrifuged at […] and 4° C. for 5 minutes. 100 μL of the supernatant was taken and diluted with 100 μL of water for injection and analysis. The retention time of the compound and the internal standard, chromatogram acquisition, and chromatogram integration were processed by Analyst 1.6.3 software. The compound was subjected to linear regression with a weighting coefficient of 1/X^2 to calculate the concentration at each time point. The natural logarithm of the percentage remaining at each time point was linearly regressed against the incubation time to calculate the in vitro elimination rate constant k. The half-life (T1/2) and hepatic intrinsic clearance CLint(liver) of the test article were calculated according to the following formula.
(§5) hepatic microsomal clearance CLint(mic)=0.693/half-life/mg microsomal protein per mL; hepatic intrinsic clearance CLint(liver)=hepatic microsomal clearance×mg microsomal protein/gram of liver×liver weight-to-body weight ratio. The liver weight-to-body weight ratios of mice, rats, and humans were […], respectively; the average value of mg microsomal protein/gram of liver in different species was 45.
Background: Microsomes from liver hold many membrane-bound enzymes, among them those of drug oxidation.

Data set [4] is described as follows: Liver microsomal metabolism, mouse. The data set is classed as in vitro ADME. On the set-up: half-life / CLint scaled: dose or concentration left out as unconfirmed. On the procedure:
as §3, §4, §5

Data set [5] is described as follows: Liver microsomal metabolism, human. The data set is classed as in vitro ADME. On the set-up: half-life / CLint scaled: dose or concentration left out as unconfirmed. On the procedure: as §3, §4, §5
In another data set the test system is Plasmodium falciparum. The data set is described as follows: 3-day SYBR Green I in vitro growth inhibition of Plasmodium falciparum. The data set is classed as cell-based. Particulars: wild-type Plasmodium falciparum, 72 hours, read-out: IC50 of growth inhibition on in vitro culture of Plasmodium falciparum. On the procedure: 100 μL of complete culture medium was added to a 96-well plate. 200 μL of a compound stock solution with a concentration of 200 μM was added to the first well. Gradient dilution (11 concentration gradients) was performed at a 1/2 ratio according to the doubling gradient dilution. Dihydroartemisinin (DHA) was used as a positive control, complete culture medium was used as a negative control, and red blood cells without Plasmodium falciparum or compounds were used as a background control.
100 μL of wild-type Plasmodium falciparum culture (1% parasitemia, 4% hematocrit) was accurately added to each well, so that finally, the parasitemia in each well was 0.5%, and the hematocrit was 2%. The final concentration gradients of the compound were 100 μM, 50 μM, 25 μM, 12.5 μM, 6.25 μM, 3.125 μM, 1.5625 μM, 0.78125 μM, 0.390625 μM, 0.195313 μM, and 0.097656 μM. […] After the incubation was completed, a fluorescence intensity was recorded on a microplate reader with an excitation wavelength of 485 nm and an emission wavelength of 535 nm. The inhibition rate of the small molecule inhibitor on the growth of Plasmodium falciparum was calculated based on the fluorescence intensity.
[formula] • where Fltreated, Flbackground, and Flcontrol represent the fluorescence intensity values of the candidate small molecule drug group, the red blood cell control group, and the untreated control group, respectively. […]

As a reminder, the CLint scaled is the rate of metabolic loss divided by the concentration. As a reminder, the half-life is the time needed for the level to fall by half in the phase considered. As a reminder, the IC50 is the concentration needed to halve the response being measured. As for `Cc1cccc(-c2nnc3c4ccccc4nc(N4CCN(C(=O)Cc5ccccc5)CC4)n23)c1` [triazoloquinoline derivative], in data set [1], the “decrease of expression levels of merozoite surface structural protein family genes (mRNA level)” value was “more than 1.5 fold”. Moreover, in the data set with 293T cells, the “cytotoxicity to mammalian cells (293T)” value is on record as “low cytotoxicity; also recorded: almost no toxicity”. For the same compound, in the data set on HepG2 cells, the “cytotoxicity to mammalian cells (HepG2)” value is on record as “low cytotoxicity; also recorded: almost no toxicity”. Moreover, the “killing effect against artemisinin-resistant strains (ring-stage survival)” value in data set [2] is reported as “more effectively kill”. Besides, the CLint scaled in data set [3] (liver microsomes, pH 7.4, rat, hepatic intrinsic clearance scaled from microsomes) came to 59.4 mL/min/kg; in data set [4] (liver microsomes, pH 7.4, mouse, hepatic intrinsic clearance scaled from microsomes), 342 mL/min/kg; in data set [5] (liver microsomes, pH 7.4, human, hepatic intrinsic clearance scaled from microsomes), 8.54 mL/min/kg. Also, the half-life in data set [3] (pH 7.4, rat liver microsomes) came to 42 min; in data set [4] (pH 7.4, mouse liver microsomes), 16 min; in data set [5] (pH 7.4, human liver microsomes), 131 min. Besides, the clearance classification result in data set [3] (rat liver microsomes) is “moderate-clearance compound”; in data set [4] (mouse liver microsomes), “high-clearance compound”; in data set [5] (human liver microsomes), “moderate-clearance compound”. Moreover, the k came out at 0.0165 min⁻¹ in data set [3] (rat liver microsomes, 0.5 mg/mL, NADPH); 0.0432 min⁻¹ in data set [4] (mouse liver microsomes, 0.5 mg/mL, NADPH); 0.0053 min⁻¹ in data set [5] (human liver microsomes, 0.5 mg/mL, NADPH). Moreover, in the data set with Plasmodium falciparum, the IC50 worked out at 2.63 µM.
